# Source: patent US5929035A, “Methods of treating intestinal disorders” (Regents of the University of Michigan, priority 1998, dated 1999)
# Where “and” joins values, the source holds several entries; their conditions need not be identical. Equal values may be shown once. Read-outs that look alike come from different tables or passages of the source.
# Tests used:
# [1] = system: longitudinal muscle from rat proximal colon
# [2] = system: longitudinal muscle strips of proximal colon from BAC- or vehicle-treated rats; assay: Benzalkonium chloride (BAC) myenteric plexus ablation, organ bath experiments; design: species or system rat
# From the text: This example examined benzalkonium chloride (BAC)-treatment. […] EFS caused frequency-dependent and TTX-sensitive contractions in vehicle-treated tissues but not BAC-treated tissues. However, carbachol contracted both vehicle- and BAC-treated tissues with the same degree. These previous studies indicate that chronic ablation of the myenteric plexus by serosal application of BAC essentially eliminates neuronally mediated responses without a concomitant alteration in muscle contractility. To investigate if the action of OFQ is mediated via intramural myenteric plexus, BAC (0.1%) was applied to the serosal surface of the proximal colon every 5 min for 30 min and then rinsed off with saline. Saline-treated group served as controls. Two weeks after BAC- or saline-treatment, the longitudinal muscle strips were used for the organ bath experiments.
# The area under the curve was calculated using Planix 7 (Sokkia Corporation,Overland Park, Kans.) and expressed as a motility index. The area under the curve of basal contraction was evaluated over 10 min in each experiment. The area under the curve of antagonist-induced contractions and OFQ-induced contractions was also evaluated over 10 min. The motility index was compared between basal contractions and OFQ-induced contractions in each experiment.
# [3] = system: longitudinal muscle from the rat proximal colon
# [4] = system: IBS patients; settings: literature; cited from earlier work
# [5] = system: post-operative ileus; settings: cited from earlier work
# [6] = system: colonic motility; settings: literature; cited from earlier work
# [7] = system: colonic transit; design: species or system rats; settings: rat, in vivo, sc
# [8] = system: mouse vas deferens; settings: cited from earlier work
# [9] = system: 3H-ACh release from longitudinal muscle strips of ileum; design: species or system rat
# [10] = system: gastrointestinal transit; design: species or system rats; settings: rat, in vivo, sc
# [11] = system: longitudinal muscle strips from rat ileum
# [12] = system: longitudinal and circular muscle of the rat proximal colon
# [13] = system: longitudinal and circular muscle layer from the stomach and small intestine; design: species or system rat
# [14] = system: longitudinal muscle strips from rat gastric body
# [15] = system: opioid receptor; settings: cited from earlier work
# [16] = system: longitudinal and circular muscle from rat colon (proximal colon and distal colon)
# [17] = system: 3H-ACh release from longitudinal muscle strips of gastric body; design: species or system rat
# [18] = system: 3H-ACh release from longitudinal muscle strips of proximal colon; design: species or system rat
# [19] = system: proximal colon; design: species or system rats; settings: rat, in vivo, iv
# [20] = system: stomach; design: species or system rats; settings: rat, in vivo, iv
# [21] = system: guinea pig ileum; settings: cited from earlier work
# [22] = system: longitudinal muscle strips from rat proximal colon
# [23] = patients after abdominal / gastrointestinal surgery, literature trials
molecule,measurement,setting,value
"[p-chloro-D-Phe^6, LEU ^17 ]-VIP [VIP antagonist]",antagonism of the action of VIP,[1],significantly antagonized
same,effect of antagonist on OFQ-induced contractions,[1],did not affect
same,effect on spontaneous contractions in the proximal colon,[1],no significant effects
C[N+](C)(C)CCCCCC[N+](C)(C)C [hexamethonium],effect of antagonist on OFQ-induced contractions,[1],did not affect
"CCCCCCCCCCCCC[N+](C)(C)Cc1ccccc1 [BAC, benzalkonium chloride]",spontaneous basal muscle contraction in BAC-treated vs vehicle-treated tissues,"[2]; BAC 0.1% on serosal surface of proximal colon, two weeks before",significantly higher
same,response to EFS of muscle strips from BAC-treated rats,"[2]; EFS 65 V, 0.5 msec, 10 Hz",failed to cause any responses
"C[N+](C)(C)CCOC(N)=O [carbachol, reference compound]",contraction of control and BAC-treated tissues,[2]; carbachol 10^-6 M,contracted both control and BAC-treated tissues with the same degree
same,contractions in the presence of TTX,[3],caused further contractions
N=C(N)NCCN1CCCCCCC1 [guanethidine],effect of antagonist on OFQ-induced contractions,[1],not affected
CC[C@@H](CO)NC(=O)[C@@H]1C=C2c3cccc4c3c(cn4C)C[C@H]2N(C)C1 [methysergide],effect of antagonist on OFQ-induced contractions,[1],did not affect
"COc1cc(N)c(Cl)cc1C(=O)NC1CCN(CCCOc2ccc(F)cc2)CC1OC (stereo not shown) [cisapride, Cisapride]",stool frequency in IBS patients,[4],increase stool frequency
same,whole gut transit in IBS patients,[4],accelerate whole gut transit
same,"duration of post-operative ileus, treated vs placebo/control patients",[5]; [23],no difference
same,effect on colonic motility,[6],little effect
same,efficacy in constipated patients,[6],not very effective
"COC(=O)[C@@H](N)CCCNC(=N)N[N+](=O)[O-] [L-NAME, NG-nitro-L-arginine methyl ester]",effect of antagonist on OFQ-induced contractions,[1],preserved
same,effect on spontaneous contractions in the proximal colon,[1],enhanced spontaneous contractions
COc1ccc2c(c1)c(CC(=O)O)c(C)n2C(=O)c1ccc(Cl)cc1 [indomethacin],effect of antagonist on OFQ-induced contractions,[1],did not affect
"[D-Pro^4, D-Trp7.9]-substance P 4-11 [substance P antagonist]",effect of antagonist on OFQ-induced contractions,[1],did not affect
"CN1C[C@H](C(=O)N[C@]2(C)O[C@@]3(O)[C@@H]4CCCN4C(=O)[C@H](Cc4ccccc4)N3C2=O)C[C@@H]2c3cccc4[nH]cc(c34)C[C@H]21 [DHE, dihydroergotamine]","duration of post-operative ileus, treated vs placebo/control patients",[5]; [23],no significant differences
CCN(CC)CCNC(=O)c1cc(Cl)c(N)cc1OC [metoclopramide],effect on colonic motility,[6],little effect
same,efficacy in constipated patients,[6],not very effective
Cc1ccc(N(CC2=NCCN2)c2cccc(O)c2)cc1 [phentolamine],effect of antagonist on OFQ-induced contractions,[1],not affected
dynorphin A [reference compound],colonic transit,[7],delays colonic transit
CC(C)C[C@@H]1NC(=O)[C@H](C)NC(=O)[C@H]([C@@H](C)O)NC(=O)[C@H](CCC(=O)O)NC(=O)[C@@H]2CCCN2C(=O)[C@H](C)NC(=O)[C@H](CCCCN)NC(=O)[C@@H]2CSSC[C@@H](C(=O)N[C@@H](CCC(N)=O)C(=O)N[C@@H](CCC(N)=O)C(=O)N[C@@H](Cc3cnc[nH]3)C(N)=O)NC(=O)[C@H](CCCNC(=N)N)NC(=O)[C@H](CCCNC(=N)N)NC(=O)[C@H](C)NC(=O)[C@H](CSSC[C@H](N)C(=O)N[C@@H](CC(N)=O)C(=O)N2)NC1=O [apamin],effect of antagonist on OFQ-induced contractions,[1],preserved
same,effect on spontaneous contractions in the proximal colon,[1],enhanced spontaneous contractions
"CC(C)C[C@H](NC(=O)[C@H](CCCCN)NC(=O)[C@H](CCCN=C(N)N)NC(=O)[C@H](C)NC(=O)[C@H](CO)NC(=O)[C@H](CCCCN)NC(=O)[C@H](CCCN=C(N)N)NC(=O)[C@H](C)NC(=O)CNC(=O)[C@@H](NC(=O)[C@H](Cc1ccccc1)NC(=O)CNC(=O)CNC(=O)[C@@H](N)Cc1ccccc1)[C@@H](C)O)C(=O)N[C@@H](C)C(=O)N[C@@H](CC(N)=O)C(=O)N[C@@H](CCC(N)=O)C(=O)O [OFQ, Phe-Gly-Gly-Phe-Thr-Gly-Ala-Arg-Lys-Ser-Ala-Arg-Lys-Leu-Ala-Asn-Gln]",effect on EFS-evoked muscular contraction,[8],potent inhibitory effects
same,OFQ-induced contractions in Ca2+-free medium,[1],abolished
same,3H-ACh release in response to EFS reduced to,[9],44.7±5.8%
same,basal release of 3H-ACh,[9],no effects
same,gastrointestinal transit,[10],without affecting
same,EFS-evoked muscular contraction reduced to,[11],41.2±8.5%
same,EFS-evoked on- and off-contraction in ileum,[11],significantly reduced
same,dose dependence of reduction of EFS-evoked muscular contraction,[11],in a dose dependent manner
same,contraction of longitudinal muscle from vehicle-treated rats,[2],caused significant contractions
same,contraction of longitudinal muscles from BAC-treated rats,[2],no contractile effects
same,contractions at 10^-7 M compared with 10^-6 M,[12],not significantly different
same,dose dependence of induced contractions,[12],in a dose-dependent manner
same,"maximal effect, increase of basal contraction",[12],278%±24% and 215%±32%
same,persistence of strong phasic contractions,[12],10 to 15 min
same,strips showing a potent initial phasic contraction followed by a phasic response,[12],60.9%
same,strips showing a smaller initial contraction followed by a gradually increasing phasic response,[12],26.4%
same,strips showing only a slight initial contraction followed by a pronounced phasic response,[12],12.6%
same,contractions in longitudinal and circular muscle layer from stomach and small intestine,[13],failed to elicit significant contractions
same,EFS-evoked muscular contraction reduced to,[14],85.2±5.6%
same,EFS-evoked of-contraction in the stomach,[14],significantly reduced
same,dose dependence of reduction of EFS-evoked muscular contraction,[14],in a dose dependent manner
same,activity at the opioid receptor,[15],does not show any activity
same,contractions in longitudinal muscle of proximal colon compared with distal colon (in words),[16],much greater
same,contractions in longitudinal muscle of proximal colon relative to distal colon,[16],2-3 fold
same,region of rat gastrointestinal tract in which contractions were induced,[16],induced contractions only in the colon
same,threshold OFQ concentration inducing contractions,[16],10^-9 M
same,3H-ACh release in response to EFS reduced to,[17],88.1±4.3%
same,basal release of 3H-ACh,[17],no effects
same,basal release of 3H-ACh,[18],no effects
same,inhibitory effect on EFS-evoked 3H-ACh release,[18],not observed
same,muscular contractions in the proximal colon,[19],significantly increased muscular contractions
same,muscular contractions in the stomach,[20],not in the stomach
same,colonic transit,[7],significantly accelerated
same,effect on EFS-evoked muscular contraction,[21],potent inhibitory effects
same,off-contraction in response to EFS of the proximal colon,[22],no inhibitory effects
same,reduction of EFS-evoked muscular contraction,[22],not in the proximal colon
same,OFQ-induced contractions in the presence of TTX,[3],failed to elicit additional contractions
"CN1[C@@H]2CC[C@H]1C[C@@H](OC(=O)C(CO)c1ccccc1)C2 (stereo partly shown) [atropine, Atropine, reference compound]",effect of antagonist on OFQ-induced contractions,[1],did not affect
same,EFS-evoked on- and off-contraction reduced to,[11],10-20%
same,EFS-evoked on- and off-contraction reduced to,[14],10-20%
same,EFS-evoked on- and off-contraction reduced to,[22],10-20%
C=CCN1CC[C@]23c4c5ccc(O)c4O[C@H]2C(=O)CC[C@@]3(O)[C@H]1C5 [naloxone],effect of antagonist on OFQ-induced contractions,"[1]; 10 min preincubation, then OFQ (10^-8 M), atropine 10^-6 M, hexamethonium 10^-4 M, naloxone 10^-5 M, indomethacin 10^-5 M, methysergide 3x10^-5 M, substance P antagonist 10^-5 M, VIP antagonist 5x10^-6 M, L-NAME 10^-4 M, apamin 10^-6 M, guanethidine, phentolamine, propranolol 10^-6 M",did not affect
CC(C)NCC(O)COc1cccc2ccccc12 (stereo not shown) [propranolol],effect of antagonist on OFQ-induced contractions,[1],not affected
"cholecystokinin (peptide, UniProt P06307 21-115, looked up, Cholecystokinin) Cholecystokinin: QPVPPADPAGSGLQRAEEAPRRQLRVSQRTDGESRAHLGALLARYIQQARKAPSGRMSIVKNLQNLDPSHRISDRDYMGWMDFGRRSAEEYEYPS","duration of post-operative ileus, treated vs placebo/control patients","[5]; human, in vivo",no differences
